Tests used:
Type in all cases: biochemical
human PLK4 = target: T1, human PLK4 (Homo sapiens, UniProt O00444); test: PLK4 Inhibition Assay (indirect ELISA); details: 15 μM ATP, 4 nM GST-PLK4; read-out: PLK4 IC50 Ranges
T1 construct: amino terminal GST fusion of residues 1-391 of human PLK4; made in house; host or cells: E. coli
T1 sequence (O00444 1-391): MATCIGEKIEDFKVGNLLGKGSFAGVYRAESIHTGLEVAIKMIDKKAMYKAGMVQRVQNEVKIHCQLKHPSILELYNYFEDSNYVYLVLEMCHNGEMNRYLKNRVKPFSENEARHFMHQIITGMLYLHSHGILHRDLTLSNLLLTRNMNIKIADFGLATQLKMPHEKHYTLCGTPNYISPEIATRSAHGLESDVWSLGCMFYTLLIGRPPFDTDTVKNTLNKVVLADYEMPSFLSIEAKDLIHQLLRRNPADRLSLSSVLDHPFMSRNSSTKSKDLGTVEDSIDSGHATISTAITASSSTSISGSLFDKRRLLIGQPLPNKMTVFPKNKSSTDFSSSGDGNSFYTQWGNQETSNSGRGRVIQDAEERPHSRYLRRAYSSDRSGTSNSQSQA
Experimental: The protein was purified from clarified cell extracts after induction at 15° C. overnight using glutathione sepharose, gel permeation chromatography, and ion exchange (Resource Q). The resulting protein was dephosphorylated with lambda phosphatase (NEB cat #P0753), and resolved from the phosphatase using gluthione sepharose. The dephosphorylated GST-PLK4 was stored in aliquots at −80° C. until use. PLK4 activity was measured using an indirect ELISA detection system. […] Compounds were pre-incubated in the presence of enzyme for 15 minutes prior to addition of ATP and the activity remaining quantified using the above described activity assay. […] The IC50 value was determined using a non-linear 4 point logistic curve fit (XLfit4, IDBS) with the formula; (A+(B/(1+((x/C)^D)))), where A=background value, B=range, C=inflection point, D=curve fit parameter.

PLK1 = target: T2, PLK1 (Homo sapiens, UniProt P53350); test: PLK1 Inhibition Assay (Z-Lyte); details: 10 μM compound; read-out: PLK1 relative inhibition percentage at a dose of 10 μM
T2 construct: purchased Invitrogen PV3501
Experimental: PLK1 inhibition was determined using the Z-Lyte assay kit from Invitrogen (cat #PV3802). […] The % inhibition values were determined according to the manufacturer's directions and IC50 values were obtained using a non-linear 4 point logistic curve fit (XLfit4, IDBS)

PLK2 = target: T3, PLK2 (Homo sapiens, UniProt Q9NYY3); test: PLK2 Inhibition Assay (Z-Lyte); details: 10 μM compound; read-out: PLK2 relative inhibition percentage at a dose of 10 μM
T3 construct: purchased Invitrogen PV4204
Experimental: (§1) PLK2 inhibition was determined using the Z-Lyte assay kit from Invitrogen (cat #PV3802). The assay was performed using the recommended manufacturer's instructions with 60 μM ATP and 133 nM PLK2 (Invitrogen cat #PV4204). The % inhibition values were determined according to the manufacturer's directions and IC50 values were obtained using a non-linear 4 point logistic curve fit (XLfit4, IDBS)

Aurora A = target: T4, Aurora A (Homo sapiens, UniProt O14965); test: Aurora A Inhibition Assay (Z-Lyte); details: for inhibition at 10 µM: 10 μM compound, read-out: Aurora A relative inhibition percentage at a dose of 10 μM; for IC50: 20 μM ATP, 12 nM Aurora A, read-out: Aurora A IC50 Ranges; for inhibition at 1 µM: 1 μM compound, read-out: Aurora A relative inhibition percentage at a dose of 1 μM
T4 construct: purchased Invitrogen PV3612
T4 sequence (O14965 1-403): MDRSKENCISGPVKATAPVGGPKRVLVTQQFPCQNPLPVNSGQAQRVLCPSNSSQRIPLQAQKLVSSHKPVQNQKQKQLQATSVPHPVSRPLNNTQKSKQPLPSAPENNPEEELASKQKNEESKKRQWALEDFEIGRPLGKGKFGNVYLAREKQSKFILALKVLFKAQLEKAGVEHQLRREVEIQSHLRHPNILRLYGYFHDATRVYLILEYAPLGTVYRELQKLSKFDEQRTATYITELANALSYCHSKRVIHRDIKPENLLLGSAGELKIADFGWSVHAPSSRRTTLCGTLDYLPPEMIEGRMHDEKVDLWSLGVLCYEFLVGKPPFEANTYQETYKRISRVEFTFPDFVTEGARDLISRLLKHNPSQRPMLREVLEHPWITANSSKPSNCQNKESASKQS
Experimental: as §1, with “Aurora A” for “PLK2”, “Invitrogen.” for “Invitrogen (cat #PV3802).”, “20” for “60”, “12” for “133”, “#PV3612).” for “#PV4204).”

Aurora B = target: T5, Aurora B (Homo sapiens, UniProt Q96GD4); test: Aurora B Inhibition Assay (Z-Lyte); details: 128 μM ATP, 28 nM Aurora B; read-out: Aurora B IC50 Ranges
T5 construct: purchased Invitrogen PV3970
Experimental: as §1, with “Aurora B” for “PLK2”, “Invitrogen.” for “Invitrogen (cat #PV3802).”, “128” for “60”, “28” for “133”, “#PV3970).” for “#PV4204).”

T3 sequence (Q9NYY3 whole entry): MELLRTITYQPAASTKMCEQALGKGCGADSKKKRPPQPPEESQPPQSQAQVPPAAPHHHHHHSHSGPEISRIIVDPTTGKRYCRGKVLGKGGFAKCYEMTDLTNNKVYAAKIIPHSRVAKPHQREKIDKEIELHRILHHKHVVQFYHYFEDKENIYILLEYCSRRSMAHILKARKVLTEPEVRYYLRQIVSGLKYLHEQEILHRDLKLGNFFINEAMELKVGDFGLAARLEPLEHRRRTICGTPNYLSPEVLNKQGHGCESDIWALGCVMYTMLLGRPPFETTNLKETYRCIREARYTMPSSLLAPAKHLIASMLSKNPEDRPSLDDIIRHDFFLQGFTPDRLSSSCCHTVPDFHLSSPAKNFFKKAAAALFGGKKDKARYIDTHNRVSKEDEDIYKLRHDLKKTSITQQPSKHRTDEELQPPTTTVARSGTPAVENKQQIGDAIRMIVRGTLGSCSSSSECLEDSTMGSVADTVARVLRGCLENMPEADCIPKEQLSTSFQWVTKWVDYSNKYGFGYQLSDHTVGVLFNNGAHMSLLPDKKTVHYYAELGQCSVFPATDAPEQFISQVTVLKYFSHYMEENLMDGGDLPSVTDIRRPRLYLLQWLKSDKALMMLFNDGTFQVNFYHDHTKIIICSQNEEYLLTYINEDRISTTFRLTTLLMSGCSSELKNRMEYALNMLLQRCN
T5 sequence (Q96GD4 whole entry): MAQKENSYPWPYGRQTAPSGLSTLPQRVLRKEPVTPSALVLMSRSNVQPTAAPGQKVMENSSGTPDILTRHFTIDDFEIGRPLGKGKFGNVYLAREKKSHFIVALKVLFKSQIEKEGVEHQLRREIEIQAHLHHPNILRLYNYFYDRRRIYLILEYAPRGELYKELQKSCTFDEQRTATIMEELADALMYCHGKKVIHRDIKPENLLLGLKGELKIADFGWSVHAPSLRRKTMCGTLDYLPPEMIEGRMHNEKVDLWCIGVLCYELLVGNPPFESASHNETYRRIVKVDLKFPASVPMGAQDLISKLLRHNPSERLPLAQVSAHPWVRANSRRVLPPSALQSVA
T2 sequence (P53350 whole entry): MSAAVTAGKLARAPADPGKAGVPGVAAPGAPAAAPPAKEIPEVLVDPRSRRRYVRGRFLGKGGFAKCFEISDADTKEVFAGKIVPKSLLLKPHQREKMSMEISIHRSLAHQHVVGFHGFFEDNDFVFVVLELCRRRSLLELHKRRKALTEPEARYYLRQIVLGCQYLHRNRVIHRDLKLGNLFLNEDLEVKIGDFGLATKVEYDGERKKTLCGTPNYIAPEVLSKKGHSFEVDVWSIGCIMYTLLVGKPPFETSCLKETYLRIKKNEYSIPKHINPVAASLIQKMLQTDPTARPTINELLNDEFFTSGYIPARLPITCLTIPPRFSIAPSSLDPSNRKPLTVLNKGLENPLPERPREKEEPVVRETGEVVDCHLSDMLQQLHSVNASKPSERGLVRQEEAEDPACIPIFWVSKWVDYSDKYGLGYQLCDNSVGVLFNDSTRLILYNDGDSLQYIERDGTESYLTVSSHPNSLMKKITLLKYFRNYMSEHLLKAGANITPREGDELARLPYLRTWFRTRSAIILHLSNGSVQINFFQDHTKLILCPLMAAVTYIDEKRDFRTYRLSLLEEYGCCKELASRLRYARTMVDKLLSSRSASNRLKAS

SMILES	IC50 (human PLK4)	inhibition at 10 µM (PLK1)	inhibition at 10 µM (PLK2)	inhibition at 10 µM (Aurora A)	IC50 (Aurora B)	IC50 (Aurora A)	inhibition at 1 µM (Aurora A)
COc1ccc2c(c1)/C(=C\c1ccc3c(-c4ccc(N(C)C)nc4)n[nH]c3c1)C(=O)N2 [Example A116, (E)-3-((3-(6-(dimethylamino)pyridin-3-yl)-1H-indazol-6-yl)methyl-ene)-5-methoxyindolin-2-one]	–	< 50%	< 50%	–	–	–	–
COc1ccc2c(c1)/C(=C\c1ccc3c(/C=C/c4ccc(C(=O)O)cc4)n[nH]c3c1)C(=O)N2 [Example A145, 4-((E)-2-(6-((E)-(5-methoxy-2-oxoindolin-3-ylidene)methyl)-1H-indazol-3-yl)vinyl)benzoic acid]	< 5 µM	–	–	–	< 5 µM	< 5 µM	–
O=C(O)/C=C/c1n[nH]c2cc(C=C3C(=O)Nc4ncccc43)ccc12 (mixture of isomers) [Example A71, (E)-3-(6-((E & Z)-(2-oxo-1H-pyrrolo[2,3-b]pyridin-3(2H)-ylidene)-methyl)-1H-indazol-3-yl)acrylic acid]	< 5 µM	–	–	> 50%	< 5 µM	–	–
COc1ccc2c(c1)/C(=C\c1ccc3c(-c4cnc(N5CCN(C)CC5)nc4)n[nH]c3c1)C(=O)N2 [Example A151, (E)-5-methoxy-3-((3-(2-(4-methylpiperazin-1-yl)pyrimidin-5-yl)-1H-indazol-6-yl)methylene)indolin-2-one]	< 5 µM	–	–	–	< 5 µM	5 to 50 µM	–
O=C1Nc2ncc(Br)cc2C1=Cc1ccc2c(/C=C/c3cccnc3)n[nH]c2c1 (mixture of isomers) [Example A140, (E and Z)-5-bromo-3-((3-((E)-2-(pyridin-3-yl)vinyl)-1H-indazol-6-yl)methylene)-1H-pyrrolo[2,3-b]pyridin-2(3H)-one]	< 5 µM	–	–	–	< 5 µM	< 5 µM	–
COc1ccc2c(c1)/C(=C\c1ccc3c(/C=C/C(=O)N(C)CCN(C)C)n[nH]c3c1)C(=O)N2 [Example A126, (E)-N-(2-(dimethylamino)ethyl)-3-(6-((E)-(5-methoxy-2-oxoindolin-3-ylidene)methyl)-1H-indazol-3-yl)-N-methylacrylamide 2,2,2-trifluoroacetate]	< 5 µM	–	–	> 50%	< 5 µM	–	–
COC(=O)c1ccc(/C=C/c2n[nH]c3cc(C=C4C(=O)Nc5ncccc54)ccc23)cc1 (mixture of isomers) [Example A143, methyl 4-((E)-2-(6-((E and Z)-(2-oxo-1H-pyrrolo[2,3-b]pyridin-3(2H)-ylidene)methyl)-1H-indazol-3-yl)vinyl)benzoate]	< 5 µM	–	–	–	< 5 µM	–	> 50%
O=C1Nc2ccc(O)cc2/C1=C\c1ccc2c(/C=C/c3ccncc3)n[nH]c2c1 [Example A124, (E)-5-hydroxy-3-((3-((E)-2-(pyridin-4-yl)vinyl)-1H-indazol-6-yl)methylene)indolin-2-one 2,2,2-trifluoroacetate]	< 5 µM	–	–	–	< 5 µM	< 5 µM	–

The next lines start with the values.

IC50 (human PLK4)	inhibition at 10 µM (PLK1)	inhibition at 10 µM (PLK2)	inhibition at 10 µM (Aurora A)	IC50 (Aurora B)	IC50 (Aurora A)	inhibition at 1 µM (Aurora A)	SMILES
< 5 µM	< 50%	< 50%	> 50%	< 5 µM	–	–	O=C1Nc2ncccc2/C1=C\c1ccc2c(/C=C/c3ccccn3)n[nH]c2c1 [Example A72, (E)-3-((3-((E)-2-(pyridin-2-yl)vinyl)-1H-indazol-6-yl)methylene)-1H-pyrrolo[2,3-b]pyridin-2(3H)-one]
< 5 µM	< 50%	< 50%	–	–	–	–	COCn1nc(/C=C/c2ccncc2)c2ccc(/C=C3/C(=O)Nc4ccc(Br)cc43)cc21 [Example A63, (E)-5-bromo-3-((1-(methoxymethyl)-3-((E)-2-(pyridin-4-yl)vinyl)-1H-indazol-6-yl)methylene)indolin-2-one]
< 5 µM	–	–	–	< 5 µM	< 5 µM	–	O=C1Nc2ccccc2/C1=C\c1ccc2c(/C=C/c3ccc(C(=O)O)cc3)n[nH]c2c1 [Example A144, 4-((E)-2-(6-((E)-(2-oxoindolin-3-ylidene)methyl)-1H-indazol-3-yl)vinyl)benzoic acid]
< 5 µM	–	–	–	< 5 µM	–	> 50%	COC(=O)c1ccc(/C=C/c2n[nH]c3cc(/C=C4\C(=O)Nc5ccccc54)ccc23)cc1 [Example A141, methyl 4-((E)-2-(6-((Z)-(2-oxoindolin-3-ylidene)methyl)-1H-indazol-3-yl)vinyl)benzoate]
< 5 µM	–	–	–	< 5 µM	< 5 µM	–	O=C1Nc2ccc(Cl)nc2C1=Cc1ccc2c(/C=C/c3ccncc3)n[nH]c2c1 (mixture of isomers) [Example A137, (E and Z)-5-chloro-3-((3-((E)-2-(pyridin-4-yl)vinyl)-1H-indazol-6-yl)methylene)-1H-pyrrolo[3,2-b]pyridin-2(3H)-one]
< 5 µM	< 50%	> 50%	–	< 5 µM	–	–	O=C1Nc2ccccc2/C1=C\c1cc(Br)c2cn[nH]c2c1 [Example A53a, (E)-3-((4-bromo-1H-indazol-6-yl)methylene)indolin-2-one]
< 5 µM	–	–	–	< 5 µM	< 5 µM	–	O=C1Nc2ncccc2C1=Cc1ccc2c(/C=C/c3ccc(C(=O)O)cc3)n[nH]c2c1 (mixture of isomers) [Example A146, 4-((E)-2-(6-((E/Z)-(2-oxo-1H-pyrrolo[2,3-b]pyridin-3(2H)-ylidene)methyl)-1H-indazol-3-yl)vinyl)benzoic acid]
< 5 µM	–	–	–	< 5 µM	< 5 µM	–	COc1cc2c(cc1OC)/C(=C\c1ccc3c(/C=C/c4ccncc4)n[nH]c3c1)C(=O)N2 [Example A138, (E)-5,6-dimethoxy-3-((3-((E)-2-(pyridin-4-yl)vinyl)-1H-indazol-6-yl)methylene)indolin-2-one]
< 5 µM	–	–	–	< 5 µM	< 5 µM	–	O=C1Nc2ccc(Br)cc2C1=Cc1ccc2c(/C=C/c3cccnc3)n[nH]c2c1 (mixture of isomers) [Example A139, (E and Z)-5-bromo-3-((3-((E)-2-(pyridin-3-yl)vinyl)-1H-indazol-6-yl)methylene)indolin-2-one]
< 5 µM	–	–	–	< 5 µM	< 5 µM	–	N#Cc1ccc2c(c1)C(=Cc1ccc3c(/C=C/c4ccncc4)n[nH]c3c1)C(=O)N2 (mixture of isomers) [Example A128, (E and Z)-2-oxo-3-((3-((E)-2-(pyridin-4-yl)vinyl)-1H-indazol-6-yl)methylene)indoline-5-carbonitrile]
< 5 µM	–	–	–	< 5 µM	–	> 50%	COC(=O)c1ccc(/C=C/c2n[nH]c3cc(C=C4C(=O)Nc5ccc(OC)cc54)ccc23)cc1 (mixture of isomers) [Example A142, methyl 4-((E)-2-(6-((E and Z)-(5-methoxy-2-oxoindolin-3-ylidene)methyl)-1H-indazol-3-yl)vinyl)benzoate]
